Series [1] has as its system HepG2. In words: Induction of Nrf2 transcription activity in human HepG2-ARE-C8 cells assessed as ARE gene expression at 20 to 100 uM after 24 hrs by cell-based luciferase reporter assay. The class given is functional.
Series [2] concerns HepG2. In words: Induction of Nrf2 transcription activity in human HepG2-ARE-C8 cells assessed as ARE gene expression at 20 to 100 uM after 12 hrs by cell-based luciferase reporter assay. The class given is functional.
Series [3] relates to HepG2. As to the kind of experiment: Induction of Nrf2 transcription activity in human HepG2-ARE-C8 cells assessed as ARE gene expression after 12 to 24 hrs by cell-based luciferase reporter assay. The class given is functional.
The subject of series [4] is HepG2. As to the kind of experiment: Cytotoxicity against human HepG2-ARE-C8 cells at 200 uM. It counts as cell-based. Conditions: hepg2, 200 µM.
For series [5], the system named is HepG2. As to the kind of experiment: Induction of Nrf2 transcription activity in human HepG2-ARE-C8 cells assessed as increase in ARE gene expression at 200 uM by cell-based luciferase reporter assay relative to untreated control. The class given is functional.
The target in series [6] is Kelch-like ECH-associated protein 1 (Homo sapiens, UniProt Q14145). In words: Inhibition of FITC-9mer Nrf2 peptide amide/Keap1 Kelch domain (unknown origin) interaction after 30 mins by fluorescence polarization assay.
Sequence of Kelch-like ECH-associated protein 1 (Q14145 whole entry, the tested form may be a part): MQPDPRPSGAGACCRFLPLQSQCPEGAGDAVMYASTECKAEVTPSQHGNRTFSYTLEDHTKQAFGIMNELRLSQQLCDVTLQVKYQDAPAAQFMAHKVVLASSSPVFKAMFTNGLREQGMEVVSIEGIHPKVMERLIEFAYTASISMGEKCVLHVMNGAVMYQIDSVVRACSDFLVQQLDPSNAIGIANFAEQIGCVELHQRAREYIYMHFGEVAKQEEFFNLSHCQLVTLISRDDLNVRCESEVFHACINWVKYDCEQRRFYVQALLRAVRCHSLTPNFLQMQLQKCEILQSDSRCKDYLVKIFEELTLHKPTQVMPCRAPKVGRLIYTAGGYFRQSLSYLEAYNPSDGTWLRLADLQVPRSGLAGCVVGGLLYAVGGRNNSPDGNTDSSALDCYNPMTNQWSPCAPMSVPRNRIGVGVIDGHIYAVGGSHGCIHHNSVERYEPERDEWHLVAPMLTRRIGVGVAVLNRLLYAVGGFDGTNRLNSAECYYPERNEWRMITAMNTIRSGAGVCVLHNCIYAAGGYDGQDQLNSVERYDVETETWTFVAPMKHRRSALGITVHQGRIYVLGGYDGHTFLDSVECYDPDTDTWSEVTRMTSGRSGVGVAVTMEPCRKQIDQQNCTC

Calls of active or inactive are those of the source. The rule behind the calls is not given here.

With `CC(C)(C)c1cc(O)ccc1O`, in the series with HepG2 [1], the result was inactive. In the series on HepG2 [2], the outcome was Active.

Regarding `O=C(N/N=C/c1ccc(-c2ccc(C(=O)O)cc2)o1)N/N=C/c1ccc(-c2ccc(C(=O)O)cc2)o1`, the Activity entry was “Dose-dependent effect” in the series on HepG2 [3] and “Non-toxic” in the series on HepG2 [4]. Moreover, the “fold change (FC)” value in the series on HepG2 [5] was 10. The compound also showed an EC50 in series [6] of 9.8 µM.

The values above are taken from ChEMBL document CHEMBL3132777, “Novel proteinprotein interaction inhibitor of Nrf2Keap1 discovered by structure-based virtual screening” (Medchemcomm, 2014).
